Measurements from patent US20230091225A1, “Bifunctional chimeric heterocyclic compounds for targeted degradation of androgen receptors and use thereof” (HINOVA PHARMACEUTICALS INC., priority 2019, published 2023).
Where two headings read alike, the source gives them in different places.

Target: T1, androgen receptor (AR) (Homo sapiens, UniProt P10275)
T1 sequence (P10275 1-920): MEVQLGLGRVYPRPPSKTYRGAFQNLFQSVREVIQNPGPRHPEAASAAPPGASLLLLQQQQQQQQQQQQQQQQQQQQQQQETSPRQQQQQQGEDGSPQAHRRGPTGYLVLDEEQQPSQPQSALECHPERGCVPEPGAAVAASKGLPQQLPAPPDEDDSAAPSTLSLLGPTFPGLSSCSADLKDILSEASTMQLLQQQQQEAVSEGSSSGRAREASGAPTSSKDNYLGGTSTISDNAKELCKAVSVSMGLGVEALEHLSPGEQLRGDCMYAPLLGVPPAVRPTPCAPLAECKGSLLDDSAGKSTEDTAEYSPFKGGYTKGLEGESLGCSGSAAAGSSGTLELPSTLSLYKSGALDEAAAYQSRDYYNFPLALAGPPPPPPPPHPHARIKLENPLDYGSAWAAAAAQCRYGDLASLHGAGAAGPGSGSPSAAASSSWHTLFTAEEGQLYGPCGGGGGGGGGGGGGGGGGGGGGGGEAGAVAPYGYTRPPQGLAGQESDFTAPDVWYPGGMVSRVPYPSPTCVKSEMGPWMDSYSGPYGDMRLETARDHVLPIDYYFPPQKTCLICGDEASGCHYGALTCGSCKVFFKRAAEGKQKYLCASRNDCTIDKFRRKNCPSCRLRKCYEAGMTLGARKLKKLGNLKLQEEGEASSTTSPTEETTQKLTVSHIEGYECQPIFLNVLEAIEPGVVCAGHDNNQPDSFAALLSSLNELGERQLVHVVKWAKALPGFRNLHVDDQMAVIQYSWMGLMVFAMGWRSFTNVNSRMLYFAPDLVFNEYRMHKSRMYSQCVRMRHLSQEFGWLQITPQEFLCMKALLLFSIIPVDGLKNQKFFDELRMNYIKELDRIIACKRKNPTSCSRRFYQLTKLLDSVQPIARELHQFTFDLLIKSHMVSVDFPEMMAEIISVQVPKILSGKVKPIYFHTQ
Assay: Degradation of androgen receptor (AR) protein in VCaP cells by ELISA
Format: cell-based
Settings: for Dmax: VCaP

[1] = AR degradation, VCaP cells, 16 h, ELISA, Table 3-1, read-out: DC50
[2] = AR degradation, VCaP cells, 16 h, ELISA, Table 3-1, read-out: Dmax (%)
[3] = AR degradation, VCaP cells, 16 h, ELISA, Table 3-1
[4] = AR degradation, VCaP cells, 16 h, ELISA, Table 3-2, read-out: DC50

Compound	DC50 [1] [nM]	Dmax [2] [%]	further results
CC(=O)O[C@@H]1CC(C(=O)N[C@@H](C)c2ccc(-c3scnc3C)cc2)N(C(=O)[C@@H](NC(=O)COCCN2CCN(c3ccc4c(c3)CN([C@H]3C(C)(C)[C@H](Oc5ccc(C#N)c(Cl)c5)C3(C)C)C4=O)CC2)C(C)(C)C)C1 (stereo partly drawn) [Compound 2, (3R,5S)-1-((S)-2-(2-(2-(4-(2-((1R,3R)-3-(3-chloro-4-cyanophenoxy)-2,2,4,4-tetramethylcyclobutyl)-1-oxoisoindolin-5-yl)piperazin-1-yl)ethoxy)acetylamino)-3,3-dimethylbutyryl)-5-(((S)-1-(4-(4-methylthiazol-5-yl)phenyl)ethyl)carbamoyl) pyrrolidin-3-yl acetate]	–	–	inhibition at 0.1 µM (percentage of degraded AR at 100 nM, VCaP cells, 16 h, ELISA, read-out: % degradation): < 25%
CC1(C)[C@H](Oc2ccc(C#N)c(Cl)c2)C(C)(C)[C@H]1N1Cc2nc(C#CC3CCC(N4CCC5(CCN(c6cc7c(cc6F)C(=O)N(C6CCC(=O)NC6=O)C7=O)C5)C4)CC3)ccc2C1=O (stereo partly shown) [Compound 367, 2-Chloro-4-((1r,3r)-3-(2-((4-(7-(2-(2,6-dioxopiperidin-3-yl)-6-fluoro-1,3-dioxoisoindolin-5-yl)-2,7-diazaspiro[4.4]nonan-2-yl)cyclohexyl)ethynyl)-5-oxo-5,7-dihydro-6H-pyrrolo[3,4-b]pyridin-6-yl)-2,2,4,4-tetramethylcyclobutoxy) benzonitrile]	100 to 300	–	Dmax (%) [3]: ++ (60%-40%)
N#Cc1ccc(O[C@H]2CC[C@H](NC(=O)c3noc(N4CCC(CN5CCC6(CC5)CN(c5ccc7c(c5)C(=O)N(C5CCC(=O)NC5=O)C7=O)C6)CC4)n3)CC2)cc1Cl (stereo partly shown) [Compound 415]	–	–	DC50: < 10 nM; Dmax: > 80%
COc1cc(O[C@H]2C(C)(C)[C@H](N3Cc4nc(C#C[C@H]5C[C@H](N6CCN(c7ccc8c(c7)C(=O)N(C7CCC(=O)NC7=O)C8=O)CC6)C5)ccc4C3=O)C2(C)C)ccc1C#N (stereo partly shown) [Compound 392]	–	–	DC50 [4]: 10 to 100 nM; Dmax (AR degradation, VCaP cells, 16 h, ELISA, Table 3-2, read-out: Dmax (%)): > 80%
CCOc1cc(O[C@H]2CC[C@H](NC(=O)c3ccc(N4CCC(CN5CCC6(CC5)CN(c5ccc7c(c5)C(=O)N(C5CCC(=O)NC5=O)C7=O)C6)CC4)nn3)CC2)ccc1C#N (stereo partly shown) [Compound 154]	–	–	DC50: < 10 nM; Dmax: > 80%
CC1(C)[C@H](Oc2ccc(C#N)c(Cl)c2)C(C)(C)[C@H]1N1Cc2nc(C#C[C@H]3C[C@H](N4CCN(c5cc6c(cc5F)C(=O)N(C5CCC(=O)NC5=O)C6=O)CC4)C3)ccc2C1=O (stereo partly shown) [Compound 357]	< 10	> 80	–
N-((1r,4r)-4-(3-chloro-4-cyanophenoxy)cyclohexyl)-6-(2-((1-(2,6-dioxopiperidin-3-yl)-6-fluoro-1,3-dioxoisoindolin-5-yl)piperidine-4-yl)methyl)-2,7-diazaspiro[(3.5]nonan-7-yl)-N-(methyl-d3)pyridazine-3-formamide [Compound 91]	–	–	Dmax (%): + (key: ++++: >80%; +++: 80%-60%; ++: 60%-40%; +: <40%); DC50 (read-out: DC50): > 300 nM
CC1(C)[C@H](Oc2ccc(C#N)c(Cl)c2)C(C)(C)[C@H]1N1Cc2nc(C#CC3CCC(N4CC5(CN(c6cc7c(cc6F)C(=O)N(C6CCC(=O)NC6=O)C7=O)C5)C4)CC3)ccc2C1=O (stereo partly shown) [Compound 341]	10 to 100	60 to 80	–
CC1(C)[C@H](Oc2ccc(C#N)c(Cl)c2)C(C)(C)[C@H]1N1Cc2nc(C#CC3CCC(N4CCC5(CCN(c6ccc7c(c6)C(=O)N(C6CCC(=O)NC6=O)C7=O)C5)C4)CC3)ccc2C1=O (stereo partly shown) [Compound 365, 2-Chloro-4-((1r,3r)-3-(2-((4-(7-(2-(2,6-dioxopiperidin-3-yl)-1,3-dioxoisoindolin-5-yl)-2,7-Diazaspiro[4.4]nonan-2-yl)cyclohexyl)ethynyl)-5-oxo-5,7-dihydro-6H-pyrrolo[3,4-b]pyridin-6-yl)-2,2,4,4-tetramethylcyclobutoxy) benzonitrile]	10 to 100	–	Dmax (%) [3]: ++++ (>80%)
CC1(C)[C@H](Oc2ccc(C#N)c(Cl)c2)C(C)(C)[C@H]1N1Cc2nc(C#CC3CCC(N4CC5(CCN(c6cc7c(cc6F)C(=O)N(C6CCC(=O)NC6=O)C7=O)CC5)C4)CC3)ccc2C1=O (stereo partly shown) [Compound 379, 2-Chloro-4-((1r,3r)-3-(2-((4-(7-(2-(2,6-dioxopiperidin-3-yl)-6-fluoro-1,3-dioxoisoindolin-5-yl)-2,7-diazaspiro[3.5]nonan-2-yl)cyclohexyl)ethynyl)-5-oxo-5,7-dihydro-pyrrolo[3,4-b]pyridin-6-yl)-2,2,4,4-tetramethylcyclobutoxy) benzonitrile]	10 to 100	–	Dmax (%) [3]: ++++ (>80%)
N#Cc1ccc(O[C@H]2CC[C@H](NC(=O)c3ncc(N4CC5(CCN(C6CCN(c7ccc8c(c7)C(=O)N(C7CCC(=O)NC7=O)C8=O)CC6)CC5)C4)cn3)CC2)cc1Cl (stereo partly shown) [Compound 106, N-((1r,4r)-4-(3-chloro-4-cyanophenoxy)cyclohexyl)-5-(7-(1-(2-(2,6-dioxopiperidin-3-yl)-1,3-dioxoisoindolin-5-yl)piperidine-4-yl)-2,7-diazaspiro[3.5]nonan-2-yl)pyrimidine-2-carboxamide]	–	–	DC50 [4]: > 300 nM; Dmax: < 40%
CC1(C)[C@H](Oc2ccc(C#N)c(Cl)c2)C(C)(C)[C@H]1N1Cc2nc(C#CC3CCC(N4CCC5(CC4)CN(c4ccc6c(c4)C(=O)N(C4CCC(=O)NC4=O)C6=O)C5)CC3)ccc2C1=O (stereo partly shown) [Compound 362]	< 10	> 80	–

Continued, in another order:

DC50 [1] [nM]	Dmax [2] [%]	Compound	further results
100 to 300	60 to 80	N#Cc1ccc(O[C@H]2CC[C@H](NC(=O)c3ncnn3[C@H]3CC[C@H](CN4CCC5(CC4)CN(c4ccc6c(c4)C(=O)N(C4CCC(=O)NC4=O)C6=O)C5)CC3)CC2)cc1Cl (stereo partly drawn) [Compound 86, N-((1r,4R)-4-(3-chloro-4-cyanophenoxy)cyclohexyl)-1-((1r,4R)-4-((2-(2-(2,6-dioxopiperidin-3-yl)-1,3-dioxoisoindolin-5-yl)-2,7-diazaspiro[3.5]nonan-7-yl)methyl)cyclohexyl)-1H-1,2,4-triazole-5-formamide]	–
< 10	> 80	N#Cc1ccc(O[C@H]2CC[C@H](NC(=O)c3ccc(N4CC5(CN(CC6CCN(c7cc8c(cc7F)C(=O)N(C7CCC(=O)NC7=O)C8=O)CC6)C5)C4)nn3)CC2)cc1Cl (stereo partly shown) [Compound 124]	–
< 10	> 80	N#Cc1ccc(O[C@H]2CC[C@H](NC(=O)c3cnc(N4CC5(CCN(CC6CCN(c7cc8c(cc7F)C(=O)N(C7CCC(=O)NC7=O)C8=O)CC6)C5)C4)cn3)CC2)cc1Cl (stereo partly shown) [Compound 96]	–
< 10	> 80	N#Cc1ccc(O[C@H]2CC[C@H](NC(=O)c3ccc(N4CCC(N5CC6(CCN(c7ccc8c(c7)C(=O)N(C7CCC(=O)NC7=O)C8=O)CC6)C5)CC4)nn3)CC2)cc1Cl (stereo partly shown) [Compound 78]	–
< 10	> 80	N#Cc1ccc(O[C@H]2CC[C@H](NC(=O)c3ccc(N4CCC5(CC4)CN(CC4CCN(c6ccc7c(c6)C(=O)N(C6CCC(=O)NC6=O)C7=O)CC4)C5)nn3)CC2)cc1Cl (stereo partly shown) [Compound 190, N-((1r,4r)-4-(3-chloro-4-cyanophenoxy)cyclohexyl)-6-(2-((1-(2-(2,6-dioxopiperidin-3-yl)-1,3-dioxoisoindolin-5-yl)piperidine-4-yl)methyl)-2,7-diazaspiro[3.5]nonan-7-yl)pyridazine-3-formamide]	–
< 10	> 80	N#Cc1ccc(O[C@H]2CC[C@H](NC(=O)c3ccc(N4CCC(CN5CCC6(CC5)CN(c5ccc7c(c5)C(=O)N(C5CCC(=O)NC5=O)C7=O)C6)CC4)cc3)CC2)cc1Cl (stereo partly shown) [Compound 192]	–
< 10	> 80	N#Cc1ccc(O[C@H]2CC[C@H](NC(=O)c3cnc(N4CCC5(CC4)CN(CC4CCN(c6cc7c(cc6F)C(=O)N(C6CCC(=O)NC6=O)C7=O)CC4)C5)cn3)CC2)cc1Cl (stereo partly shown) [Compound 76]	–
